pIC50: −log10 of the molar value. Read-outs that look alike come from different tables or passages of the source.
Key:
Assay type in all cases: biochemical
[1] = molecular target: T1, KRAS WT (Homo sapiens, UniProt P01116); test: HTRF nucleotide exchange assay (NEA), KRAS WT
T1 construct: Recombinant human RAS protein (2 nM); aa1-188 KRAS WT
Experimental: (§1) The capacity of compounds to bind KRAS G12D, other KRAS mutants and wildtype RAS isoforms was quantified using a HTRF nucleotide exchange assay. Recombinant human RAS protein (2 nM; aa1-188 KRAS WT, HRAS WT, NRAS WT, or KRAS containing the containing the G12D, G13D or Q61H amino acid substitutions, or 4 nM KRAS; aa1-188 containing the G12V, G12C, G12A or G12S amino acid substitution, an N-terminal 6×His-tag and leader sequence), and 2 nM Europium-labeled anti-6×His antibody were mixed in assay buffer (10 mM HEPES pH7.3, 150 mM NaCl, 5 mM MgCl2, 0.05% BSA, 0.0025% NP-40 and 100 mM KF) with various concentrations of compound in a 384-well plate and a volume of 5 uL. After a 60-minute incubation at room temperature, 5 ul of 200 nM EDA-GTP-DY647P1 (diluted in assay buffer) was added to the plate. Following 30-minute incubation at room temperature, time-resolved fluorescence was measured on a PerkinElmer Envision plate reader. DMSO (0.3%) and unlabeled […] (1 μM) or equivalent tool compound were used to generate the Max and Min assay signals, respectively. Data was analysed using a four-parameter logistic model to calculate IC50 values, with at least two independent replicates were performed for each compound.

[2] = molecular target: T2, KRAS G12A (Homo sapiens, UniProt P01116, G12A); test: HTRF nucleotide exchange assay (NEA), KRAS G12A
T2 construct: 4 nM KRAS; aa1-188 containing the G12V, G12C, G12A or G12S amino acid substitution
Experimental: as §1

[3] = molecular target: T3, KRAS G12V (Homo sapiens, UniProt P01116, G12V); test: HTRF nucleotide exchange assay (NEA), KRAS G12V
T3 construct: 4 nM KRAS; aa1-188 containing the G12V, G12C, G12A or G12S amino acid substitution
Experimental: as §1

[4] = molecular target: T4, KRAS G12C (Homo sapiens, UniProt P01116, G12C); test: HTRF nucleotide exchange assay (NEA), KRAS G12C
T4 construct: 4 nM KRAS; aa1-188 containing the G12V, G12C, G12A or G12S amino acid substitution
Experimental: as §1

[5] = molecular target: T5, KRAS G12S (Homo sapiens, UniProt P01116, G12S); test: HTRF nucleotide exchange assay (NEA), KRAS G12S
T5 construct: 4 nM KRAS; aa1-188 containing the G12V, G12C, G12A or G12S amino acid substitution
Experimental: as §1

[6] = molecular target: T6, KRAS G12D (Homo sapiens, UniProt P01116, G12D); test: HTRF nucleotide exchange assay (NEA), KRAS G12D; details: recombinant human KRAS G12D aa1-188, 2 nM; lowest class = % inhibition at 10 μM
T6 construct: Recombinant human RAS protein (2 nM)
Experimental: as §1

Measured: pIC50

T6 sequence (P01116 1-188 isoform P01116-2 G12D): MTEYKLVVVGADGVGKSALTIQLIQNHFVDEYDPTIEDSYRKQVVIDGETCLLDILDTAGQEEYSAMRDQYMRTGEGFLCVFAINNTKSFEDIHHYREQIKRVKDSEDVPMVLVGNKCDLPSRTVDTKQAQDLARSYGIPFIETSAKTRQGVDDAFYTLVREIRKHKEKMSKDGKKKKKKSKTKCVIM
T5 sequence (P01116 1-188 isoform P01116-2 G12S): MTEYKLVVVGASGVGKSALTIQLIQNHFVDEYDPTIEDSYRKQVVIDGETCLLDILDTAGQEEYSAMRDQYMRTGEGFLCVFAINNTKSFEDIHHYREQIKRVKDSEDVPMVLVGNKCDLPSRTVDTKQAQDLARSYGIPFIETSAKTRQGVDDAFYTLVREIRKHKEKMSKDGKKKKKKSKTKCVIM
T1 sequence (P01116 1-188 isoform P01116-2): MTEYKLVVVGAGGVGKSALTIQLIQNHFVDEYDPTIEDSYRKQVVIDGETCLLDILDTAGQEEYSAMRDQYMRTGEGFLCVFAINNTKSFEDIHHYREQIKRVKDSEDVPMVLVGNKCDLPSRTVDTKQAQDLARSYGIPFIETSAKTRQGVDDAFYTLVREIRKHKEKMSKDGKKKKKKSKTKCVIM
T4 sequence (P01116 1-188 isoform P01116-2 G12C): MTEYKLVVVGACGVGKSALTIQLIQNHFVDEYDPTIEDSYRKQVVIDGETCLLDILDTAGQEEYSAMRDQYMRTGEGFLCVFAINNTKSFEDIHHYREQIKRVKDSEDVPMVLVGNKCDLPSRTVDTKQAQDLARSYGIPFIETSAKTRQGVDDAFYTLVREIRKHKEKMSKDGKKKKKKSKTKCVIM
T3 sequence (P01116 1-188 isoform P01116-2 G12V): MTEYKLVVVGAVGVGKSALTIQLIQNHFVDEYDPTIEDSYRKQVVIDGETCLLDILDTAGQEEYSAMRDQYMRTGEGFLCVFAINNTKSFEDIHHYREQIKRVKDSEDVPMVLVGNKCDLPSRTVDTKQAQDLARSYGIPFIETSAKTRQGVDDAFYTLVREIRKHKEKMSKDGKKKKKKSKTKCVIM
T2 sequence (P01116 1-188 isoform P01116-2 G12A): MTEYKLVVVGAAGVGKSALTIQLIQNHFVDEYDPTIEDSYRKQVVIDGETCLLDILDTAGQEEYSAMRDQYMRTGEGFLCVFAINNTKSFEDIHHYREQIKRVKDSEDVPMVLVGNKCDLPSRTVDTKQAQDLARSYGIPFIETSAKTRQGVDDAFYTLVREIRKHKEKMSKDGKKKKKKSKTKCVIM

C#Cc1c(F)ccc2cc(O)cc(-c3ncc4c(N5CCCNC(=O)C5)nc(OC[C@@]56CCCN5C[C@H](F)C6)nc4c3F)c12 (relative stereo) [Example 88, 4-[7-(8-ethynyl-7-fluoro-3-hydroxy-1-naphthyl)-8-fluoro-2-[[trans-2-fluoro-1,2,3,5,6,7-hexahydropyrrolizin-8-yl]methoxy]pyrido [4,3-d]pyrimidin-4-yl]-1,4-diazepan-2-one]
≥ 8.00: [1] | [2] | [3] | [4] | [5] | [6]

CC1CN(c2nc(OCC34CCCN3CCC4)nc3c(F)c(-c4cc(O)cc5ccccc45)ncc23)CCCO1 (centres unmarked) [Example 16, 4-[8-fluoro-2-(1,2,3,5,6,7-hexahydropyrrolizin-8-ylmethoxy)-4-(2-methyl-1,4-oxazepan-4-yl)pyrido[4,3-d]pyrimidin-7-yl]naphthalen-2-ol]
7.00 to 8.00: [1] | [2] | [3] | [4] | [6]
5.00 to 7.00: [5]

COCC1(CNc2nc(OCC34CCCN3CCC4)nc3c(F)c(-c4cc(O)cc5ccccc45)ncc23)COC1 [Example 45, 4-[8-fluoro-2-(1,2,3,5,6,7-hexahydropyrrolizin-8-ylmethoxy)-4-[[3-(methoxymethyl)oxetan-3-yl]methylamino]pyrido [4,3-d]pyrimidin-7-yl]naphthalen-2-ol]
5.00 to 7.00: [1] | [3] | [4] | [5] | [6]

CS(=O)(=O)CCCNc1nc(OCC23CCCN2CCC3)nc2c(F)c(-c3cc(O)cc4ccccc34)ncc12 [Example 46, 4-[8-fluoro-2-(1,2,3,5,6,7-hexahydropyrrolizin-8-ylmethoxy)-4-(3-methylsulfonylpropylamino)pyrido[4,3-d]pyrimidin-7-yl]naphthalen-2-ol]
5.00 to 7.00: [1] | [5] | [6]

O=C1CCN(c2nc(OCC34CCCN3CCC4)nc3c(F)c(-c4cc(O)cc5ccccc45)ncc23)CCO1 [Example 72, 4-[8-fluoro-2-(1,2,3,5,6,7-hexahydropyrrolizin-8-ylmethoxy)-7-(3-hydroxy-1-naphthyl)pyrido[4,3-d]pyrimidin-4-yl]-1,4-oxazepan-7-one]
5.00 to 7.00: [1] | [3] | [4] | [6]

OCC1CCN(c2nc(OCC34CCCN3CCC4)nc3c(F)c(-c4cc(O)cc5ccccc45)ncc23)C1 (centres unmarked) [Example 73, 4-[8-fluoro-2-(1,2,3,5,6,7-hexahydropyrrolizin-8-ylmethoxy)-4-[3-(hydroxymethyl)pyrrolidin-1-yl]pyrido[4,3-d]pyrimidin-7-yl]naphthalen-2-ol]
5.00 to 7.00: [1] | [3] | [4] | [6]

CC(C)(O)C1CCN(c2nc(OCC34CCCN3CCC4)nc3c(F)c(-c4cc(O)cc5ccccc45)ncc23)C1 (centres unmarked) [Example 74, 4-[8-fluoro-2-(1,2,3,5,6,7-hexahydropyrrolizin-8-ylmethoxy)-4-[3-(1-hydroxy-1-methyl-ethyl)pyrrolidin-1-yl]pyrido[4,3-d]pyrimidin-7-yl]naphthalen-2-ol]
5.00 to 7.00: [1]
< 5.00: [3]; recombinant human KRAS G12V aa1-188, 4 nM, lowest class = % inhibition at 10 μM | [4]; recombinant human KRAS G12C aa1-188, 4 nM, lowest class = % inhibition at 10 μM | [6]

CN1CCCN(c2nc(OCC34CCCN3CCC4)nc3c(F)c(-c4cc(O)cc5ccccc45)ncc23)CC1=O [Example 75, 4-[8-fluoro-2-(1,2,3,5,6,7-hexahydropyrrolizin-8-ylmethoxy)-7-(3-hydroxy-1-naphthyl)pyrido[4,3-d]pyrimidin-4-yl]-1-methyl-1,4-diazepan-2-one]
5.00 to 7.00: [1] | [3] | [4] | [6]

O=C1CC2(CCN(c3nc(OCC45CCCN4CCC5)nc4c(F)c(-c5cc(O)cc6ccccc56)ncc34)C2)CN1 (centres unmarked) [Example 76, 2-[8-fluoro-2-(1,2,3,5,6,7-hexahydropyrrolizin-8-ylmethoxy)-7-(3-hydroxy-1-naphthyl)pyrido[4,3-d]pyrimidin-4-yl]-2,7-diazaspiro[4.4] nonan-8-one]
< 5.00: [6]
5.00 to 7.00: [1] | [3] | [4]

O=C1NCCC12CCN(c1nc(OCC34CCCN3CCC4)nc3c(F)c(-c4cc(O)cc5ccccc45)ncc13)CC2 [Example 77, 8-[8-fluoro-2-(1,2,3,5,6,7-hexahydropyrrolizin-8-ylmethoxy)-7-(3-hydroxy-1-naphthyl)pyrido[4,3-d]pyrimidin-4-yl]-2,8-diazaspiro[4.5]decan-1-one]
5.00 to 7.00: [1] | [3] | [4] | [6]

CN1CCN(c2nc(OCC34CCCN3CCC4)nc3c(F)c(-c4cc(O)cc5ccccc45)ncc23)CCC1=O [Example 78, 1-[8-fluoro-2-(1,2,3,5,6,7-hexahydropyrrolizin-8-ylmethoxy)-7-(3-hydroxy-1-naphthyl)pyrido[4,3-d]pyrimidin-4-yl]-4-methyl-1,4-diazepan-5-one]
5.00 to 7.00: [1] | [3] | [4] | [6]

OCC1CCN(c2nc(OCC34CCCN3CCC4)nc3c(F)c(-c4cc(O)cc5ccccc45)ncc23)CC1 [Example 79, 4-[8-fluoro-2-(1,2,3,5,6,7-hexahydropyrrolizin-8-ylmethoxy)-4-[4-(hydroxymethyl)-1-piperidyl]pyrido[4,3-d]pyrimidin-7-yl]naphthalen-2-ol]
7.00 to 8.00: [1] | [3] | [4] | [6]

O=C1CC2(CCN(c3nc(OCC45CCCN4CCC5)nc4c(F)c(-c5cc(O)cc6ccccc56)ncc34)CC2)CN1 [Example 81, 8-[8-fluoro-2-(1,2,3,5,6,7-hexahydropyrrolizin-8-ylmethoxy)-7-(3-hydroxy-1-naphthyl)pyrido[4,3-d]pyrimidin-4-yl]-2,8-diazaspiro[4.5]decan-3-one]
7.00 to 8.00: [3]
5.00 to 7.00: [1] | [4] | [6]

O=C1NCc2ccc(Nc3nc(OCC45CCCN4CCC5)nc4c(F)c(-c5cc(O)cc6ccccc56)ncc34)cc21 [Example 82, 6-[[8-fluoro-2-(1,2,3,5,6,7-hexahydropyrrolizin-8-ylmethoxy)-7-(3-hydroxy-1-naphthyl)pyrido[4,3-d]pyrimidin-4-yl]amino]isoindolin-1-one]
7.00 to 8.00: [3]
5.00 to 7.00: [1] | [4] | [6]

Nc1cc2ccccc2c(-c2ncc3c(N4CCCOCC4)nc(OCC45CCCN4CCC5)nc3c2F)n1 [Example 91, 1-[8-fluoro-2-(1,2,3,5,6,7-hexahydropyrrolizin-8-ylmethoxy)-4-(1,4-oxazepan-4-yl)pyrido[4,3-d]pyrimidin-7-yl]isoquinolin-3-amine]
5.00 to 7.00: [1] | [3] | [4] | [6]

CN(C)CC1(COc2nc(N3CCCOCC3)c3cnc(-c4cc(O)cc5ccccc45)c(F)c3n2)CC1 [Example 96, 4-[2-[[1-[(dimethylamino)methyl]cyclopropyl]methoxy]-8-fluoro-4-(1,4-oxazepan-4-yl)pyrido[4,3-d]pyrimidin-7-yl]naphthalen-2-ol]
7.00 to 8.00: [1] | [3] | [4] | [6]

— patent publication US20240279241A1, “PYRIDO[4,3-D]PYRIMIDINE COMPOUNDS CAPABLE OF INHIBITING KRAS MUTANT PROTEINS” (Redx Pharma PLC, priority 2021, published 2024)
